Measured values reported in patent publication US20050090451A1, “Treatment of cancer with glutamine” (priority 2002, published 2005).
Converted amounts (≈) assume the structure as drawn. Where two headings read alike, the source gives them in different places. Square brackets hold non-standard residues; d marks the D form. Peptide text beside a SMILES is read from it. Sar = CNCC(=O)O

Columns and labels:
[1] = test system: natural killer (NK) cell cytotoxicity; experiment: NK cell cytotoxicity, 51-Chromium release assay with YAC-1; assay type: in vivo, rats; conditions: only at week 1 and week 11; FIG. 31
Protocol: Rats were treated as in Example 5.
NK cell cytotoxicity was measured as follows: Aseptically removed spleens were minced using a sterile scalpel, and lymphocytes were teased from the splenic capsule with warm RPMI 1640 (Gibco BRL, Life Technologies Inc., Grand Island, N.Y.). The resulting cells were poured into 50 ml conical tubes, which were filled with ammonium chloride (0.83%) (Sigma Chemical Co., St. Louis, Mo.) to lyse the red cells. The cell solution was then centrifuged for 10 minutes at 1000 rpm. The supernatant was decanted, and the cell pellet was vortexed with RPMI (no GLN) and centrifuged again. Next, the cells were resuspended in approximately 10 ml of RPMI containing 10% fetal bovine serum […] (Gibco BRL, Life Technologies Inc., Grand Island, N.Y.) supplemented with 1% GLN. This cell suspension was placed in Petri dishes and incubated in 6% CO2 at 37° C. for 30 minutes. After incubation to assure adherence of the monocytes, the nonadherent lymphocytes were counted (1:1 with crystal violet stain). Approximately 7×10^6 total cells from each spleen were incubated for 3 days in RPMI containing 10% FBS and recombinant human IL-2 (500 U/ml). […] The calculation of the NK activity is expressed as the following equation: [formula]

[2] = test system: gut glutathione (GSH) production; experiment: Gut GLN and GSH fluxes in DMBA-treated rats; assay type: in vivo, Sprague-Dawley rats; conditions: 20 mg DMBA gavage; 1 week after DMBA; FIG. 15
Protocol: Methods: 80 Sprague-Dawley rats were randomized to 4 groups (n=20/group): DMBA+GLN, DMBA+FA, OIL+GLN, OIL+FA. Rats (age 50 days) were gavaged with a 1-time dose of 20 mg DMBA or oil. Rats were gavaged with AES-14 (1 gm GLN/kg/day) or an isonitrogenous amount of Freamine (FA) from 1 week before till sacrifice at 1 week after DMBA (greatest effect on gut GSH extraction). Arterial and portal blood was taken for GLN and GSH levels, and blood flow measured using 14-C-PAH. Gut GLN and GSH fluxes (uptake or production) were calculated.

[3] = Portal blood and gut mucosa GSH after DMBA; assay type: in vivo, Sprague-Dawley rats; conditions: 100 mg/kg DMBA, one week after
[4] = test system: GSH transport in jejunal basolateral membrane vesicles (BLMV); experiment: [3H]Glutathione uptake in jejunal basolateral membrane vesicles after DMBA; assay type: in vivo, Sprague-Dawley rats; conditions: 100 mg/kg DMBA single dose; one week after; FIG. 26
Protocol: Methods: The transport of GSH in the jejunal basolateral membrane vesicles (BLMV) was investigated in Sprague-Dawley rats treated with a single dose of 100 mg/kg DMBA (n=15) or sesame oil (n=15) as controls. The animals were pair-fed pre-defined chow and were given water ad libitum. All rats were sacrificed one week after the DMBA administration. Jejunal basolateral membrane vesicles (BLMV) were prepared using Percoll Colloidal PVP coated silica differential centrifugation technique. All steps were carried out at 2-4° C. Jejunal mucosal scraping was homogenized in isolation buffer containing 180 mM sucrose/2 mM Tris being adjusted to pH 7.40 by 2 mM Hepes using a Polytron homogenizer (Brinkman, Rexdale, ON), at setting 2 to 6 then 6 to 2, over 55 seconds. The homogenate was centrifuges for 10 minutes at 1000 g. The supernatant was filtered through four layers gauze and recollected. The supernatant containing basolateral membrane material then was centrifuged 15 minutes at 22,000 g. […] Protein concentration was determined by the Bio-Rad protein assay (Bio-Rad Laboratories, Hercules, Calif.).
The uptake of [^3H]Glutathione was measured by a rapid mixing/filtration technique. […] All vials were counted with liquid scintillation system LS 1801 (Beckman coulter, Fullerton, Calif.).

[5] = test system: Caco-2 cell monolayers
Protocol: (§1) Uptake and permeability of each compound was measured in the apical-to-basolateral direction, with and without vehicle.
(§2) Each compound was tritiated. ^14C-mannitol was used as an evaluation of monolayer/cell integrity (i.e. as a low uptake/permeability marker).
(§3) Uptake and Permeability Assessments. Compound cellular uptake into and permeability across Caco-2 monolayers was measured.
(§4) HBSS was used when no pharmaceutical vehicle was present for each of the four compounds. […] Monolayer integrity was monitored using ^14C-mannitol permeability. Mannitol uptake was also studied.
(§5) Uptake and permeability studies were conducted using Transwelle inserts in the apical to basolateral direction, at intervals of 10 sec., 60 sec., and 5 min.
(§6) ^14C-mannitol and ^3H-drugs were quantified by liquid scintillation counting. For uptake studies, at designated time points (10 sec, 60 sec, and 5 min), the donor solution was aspirated off. The cell monolayer was washed twice with ice cold HBSS to remove any residual binding and then dissolved in 1 ml of the cell solubilizing agent, Solvable®. The cell lysate (0.5 ml) was added to 5 ml scintillation cocktail (Econosafe®) and counted on liquid scintillation counter (Beckman LS5801, Columbia, Md.). For permeability studies, 0.5 ml of received solution was added to 5 ml scintillation cocktail (Econosafe®) and counted on liquid scintillation counter.

[6] = test system: Caco-2 cell monolayers; remark: listed apart in the source
Protocol: (§7) Compound cellular uptake into and permeability across Caco-2 monolayers was measured.
(§8) Monolayer integrity was monitored using ^14C-mannitol permeability. Mannitol uptake was also studied.
as §5, §6
(§9) Permeability is an absolute measure (units of cm/Sec or velocity) and can be determined even though the absolute drug concentrations were not known.

[7] = test system: human gastrointestinal epithelial cell line (CaCo); experiment: Cellular glutamine uptake in CaCo cells (HPLC); assay type: cell-based
Protocol: Both samples were allowed to stand for 1 day at room temperature. The supernatant was decanted from the residue and used for the cellular uptake determination.
On Day 1, cells from a human gastrointestinal epithelial cell line (CaCo) were plated at a density of 0.5×10^6 cells per well in a 6-well tissue culture dish.
At time points 0, 10, 20, 40, and 60 seconds the test material was aspirated and the cells washed three times (3×) with chilled (4° C.) phosphate buffered saline (PBS), followed by the addition of 1.0 ml of perchloric acid. Cells were harvested by scraping, then aspiration by pipet into a 1.7 ml tube.
The harvested cells were sonicated for 10 seconds, and 500 μl of sonicated cells were transferred into a 1.7 ml tube. The perchloric acid was neutralized by the addition of 130 μl of 2M KHCO3, and the resulting mixture was frozen overnight at −80° C.
Upon thawing, the sample was centrifuged for 10 minutes at 14,000 rpm and the supernatants were transferred to new 1.7 ml tubes and frozen at −80° C. The resulting clarified samples were thawed and diluted 1:3 with deionized water. […] After incubation for two minutes at room temperature, a 20 μl sample was injected on a Hypersil® C18 Elite 5 μm HPLC column using 70:30 acetonitrile:water as the mobile phase. Glutamine levels, measured as μg/ml, were detected at 340 nm.

[8] = test system: tumor; conditions: cited from earlier work
[9] = The Merck Index, cited from earlier work
[10] = in vitro; conditions: human, Caco-2, Mannitol Permeability with Vehicle
Protocol: as §7, §8, §5, §6, §9

[11] = test system: Caco-2 cell monolayers; experiment: Relative cellular uptake into Caco-2 monolayers, vehicle vs non-vehicle; conditions: saturated solutions; AES-14 vehicle vs HBSS; FIGS. 3-6
Protocol: as §1, §2, §3, §4, §5, §6

[12] = test system: Caco-2 cell monolayers; experiment: Caco-2 permeability, apical-to-basolateral; conditions: Aesgen-14 vehicle vs no vehicle; saturated solutions; 5 minute period; FIGS. 8-11
Protocol: as §7, §8, §5, §6, §9

Structure (SMILES): Cc1c2ccccc2c(C)c2c1ccc1ccccc12 [DMBA, 7,12-dimethylbenz[a]anthracene]
- NK cell activity vs non-DMBA controls [1]: lower
- effect on gut GLN metabolism [2]: not affecting
- effect on normal gut GSH production (negative flux) [2]: abrogated
- decrease of portal blood GSH concentration ([3]; FIG. 27): 34%
- increase of gut mucosa GSH ([3]; FIG. 28): two-fold
- decrease of the rate of total GSH uptake by BLMV vs control group [4]: 42%

Structure (SMILES): NC(=O)C[C@H](N)C(=O)O [L-asparagine]
- enhancement of cellular drug uptake by vehicle (relative uptake vehicle vs non-vehicle) [5]: about four-fold
- effect of vehicle on permeability [6]: no effect

Structure (SMILES): NC(=O)CC[C@H](N)C(=O)O [L-glutamine]
- enhancement of cellular uptake by vehicle [5]: enhanced
- mean cellular glutamine uptake ([7]; normal cells, incubation time 0 seconds): 3.53 µg/mL
- mean cellular glutamine uptake ([7]; normal cells, incubation time 10 seconds): 10.30 µg/mL
- mean cellular glutamine uptake ([7]; normal cells, incubation time 20 seconds): 2.48 µg/mL
- mean cellular glutamine uptake ([7]; normal cells, incubation time 40 seconds): 3.23 µg/mL
- mean cellular glutamine uptake ([7]; normal cells, incubation time 60 seconds): 4.85 µg/mL
- mean cellular glutamine uptake ([7]; starved cells (L-glutamine deficient medium), incubation time 0 seconds): 1.33 µg/mL
- mean cellular glutamine uptake ([7]; starved cells, incubation time 10 seconds): 1.43 µg/mL
- mean cellular glutamine uptake ([7]; starved cells, incubation time 20 seconds): 1.49 µg/mL
- mean cellular glutamine uptake ([7]; starved cells, incubation time 40 seconds): 2.23 µg/mL
- mean cellular glutamine uptake ([7]; starved cells, incubation time 60 seconds): 49.96 µg/mL
- effect of vehicle on permeability [6]: no effect
- tumor volume loss when glutamine was added to the diet ([8]; rats receiving methotrexate, Klimberg 1992): nearly doubled
- decrease of tumor growth ([8]; rats, glutamine by gavage or as a food additive, within three weeks, Fahr 1994): 40%
- solubility in water ([9]; 0° C.): 18 mg/mL (≈ 123 mM)
- solubility in water ([9]; 18° C.): 26 mg/mL (≈ 178 mM)
- solubility in water ([9]; 30° C.): 48 mg/mL (≈ 328 mM)

Structure (SMILES): OC[C@@H](O)[C@@H](O)[C@H](O)[C@H](O)CO [Mannitol, mannitol]
- Papp A→B at 5 min [10]: 0.916 ×10⁻⁶ cm/s
- effect of vehicle on mannitol relative uptake [5]: no effect
- Mannitol Permeability with Vehicle [6]: Below LOQ
- Mannitol Permeability without Vehicle [6]: Below LOQ
- effect of vehicle on mannitol permeability [6]: no effect

Structure (SMILES): Nc1nc2c(ncn2COCCO)c(=O)[nH]1 [acyclovir]
- effect of vehicle on permeability [6]: no effect

Structure (SMILES): CN(CC(=O)O)C(=O)CN [glycylsarcosine] (H-Gly-[Sar]-OH)
- enhancement of cellular drug uptake by vehicle (relative uptake vehicle vs non-vehicle) [11]: about four-fold
- effect of vehicle on permeability [12]: no effect
